Source: publication PMC9743090, “Induction of Ferroptosis in Glioblastoma and Ovarian Cancers by a New Pyrrole Tubulin Assembly Inhibitor” (Journal of Medicinal Chemistry, 2022)
Where “and” joins values, the source holds several entries; their conditions need not be identical. Identical values can stand only once. Entries after “also recorded” stand apart in the source; their conditions may differ.

What was measured:
tubulin [1] = assay: Inhibition of [3H]colchicine binding to tubulin; settings: inhibitor at 1:5:5 μM
Protocol: (§1) The assembly reaction mixtures contained 0.8 M monosodium glutamate (pH 6.6 with HCl in a 2 M stock solution), 10 μM tubulin, 4% (v/v) DMSO, and varying concentrations of the drug. Following a 15 min preincubation at 30 °C, samples were chilled on ice, GTP to 0.4 mM was added, and turbidity development was followed at 350 nm in a temperature-controlled recording spectrophotometer for 20 min at 30 °C. The extent of reaction was measured. Full experimental details were previously described.[63] For the colchicine binding assay, reaction mixtures contained 1.0 μM tubulin, 5.0 μM [^3H]colchicine, and 5.0 or 1.0 μM inhibitor and were incubated for 10 min at 37 °C. Complete details were described previously.[64]

tubulin [2] = assay: Inhibition of tubulin polymerization (assembly assay); assay type: biochemical; settings: tubulin at 10 μM, read-out: Tubulin IC50 ± SD
Protocol: as §1

[3] = tested on: PARP cleavage in OVCAR-3 cells; assay: PARP cleavage by western blot in OVCAR-3 cells; assay type: cell-based, human; settings: immunoblotting
Protocol: (§2) Western blotting was performed as previously described[68] by lysing cells in denaturing buffer sodium dodecyl sulfate (SDS)–urea. Extracts were sonicated, their protein quantified, and aliquots were loaded into an SDS–polyacrylamide gel. After electrophoresis, the proteins in the gel were transferred onto a nitrocellulose membrane (cat. no. NBA085C001EA, PerkinElmer), which then was blocked with 5% milk in TBS-T (Tris HCl with 0.1% Tween 20) and incubated with primary antibodies overnight: PARP antibody diluted 1:1000 (cat. no. 9542S CST) and actin antibody diluted 1:10,000 (cat. no. A5441, Sigma Aldrich). The next day, the membrane was extensively washed with TBS-T and incubated with horse radish peroxidase (HRP)-conjugated secondary antibodies diluted in the 5% milk solution. Detection of the HRP signal was performed using ECL (cat. no. K-12045-D50, Advansta).

[4] = tested on: PARP cleavage in U-87 MG cells; assay: PARP cleavage by western blot in U-87 MG cells; assay type: cell-based, human; settings: immunoblotting
Protocol: as §2

[5] = Metabolic stability in mouse liver microsomes; assay type: in vitro ADME
Protocol: Mouse (Sigma Aldrich, CD-1 male, pooled) and human microsomes (Sigma Aldrich, human, pooled) at 0.5 mg/mL were preincubated with the test compound 15 dissolved in DMSO at 1 μM in phosphate buffer 50 mM, pH 7.4, and 3 mM MgCl2 for 10 min at 37 °C. The reaction was then started by adding the cofactor mixture solution (NADP, glucose-6-phosphate, glucose-6-phosphate dehydrogenase in 2% NaHCO3). Samples were taken at 0, 10, 30, 45, and 60 min and added to acetonitrile to stop the reaction. Samples were then centrifuged, and the supernatant was analyzed by LC–MS/MS to quantify the amount of the compound. A control sample without the cofactor was always added to check the chemical stability of the test compound. […] A fixed concentration of verapamil was added in every sample as an internal standard for LC–MS/MS analyses. The percentage of the area of the test compound remaining at the various incubation times was calculated with respect to the area of the compound at time 0 min.
The rate constant, k (min^–1), derived for the exponential decay equation (peak area/IS vs time), was used to calculate the rate of Cli.
Samples were analyzed under the following conditions: UPLC Waters coupled with an API 3200 triple-quadrupole (ABSciex); eluents, (phase A) 95% water, 5% acetonitrile + 0.1% HCOOH, (phase B) 5% water, 95% acetonitrile + 0.1% HCOOH; flow rate, 0.3 mL/min; column, Gemini-Nx 5 μm C18 110A (50 × 2.00 mm) at 35 °C; injection volume, 10 μL. Source conditions ESI positive: T 400 °C, Gas 1 30, Gas 2 35, CUR 30, IS 5500, CAD 5.

OVCAR-3 OC cells = assay: OVCAR-3 proliferation assay (cell count, Trypan Blue); assay type: cell-based; settings: Homo sapiens, 48 h incubation, read-out: IC50 cell viability OVCAR-3
Protocol: (§3) The methodology for the evaluation of the growth of human MCF-7 breast carcinoma cells was previously described, except that cells were grown for 96 h for IC50 determinations.[66] U-87 MG and OVCAR-3 proliferation assays were performed plating 10^4 cells/cm^2 in a Multiwell 24. The day after, cells were treated with compound 15, and DMSO was used as a control. Cells were counted 48 h later with a Bürker counting chamber, after dilution in TrypanBlue (#T6146 Sigma-Aldrich).
All experiments were performed multiple times to reach statistical significance, as specified in the figure legends. Statistical analysis was performed using GraphPad Prism version 7.0 for Mac. IC50 values were calculated by using a nonlinear regression formula, using the percentage of cells number and the logarithmic value of drug concentrations. Data were analyzed with analysis of variance (one-way ANOVA test). Data with *p < 0.05 were considered statistically significant.

[6] = tested on: MCF-7 human breast carcinoma cells; assay: Inhibition of the growth of MCF-7 human breast carcinoma cells; assay type: cell-based
Protocol: as §3

[7] = tested on: human primary T lymphocytes; assay: Toxicity on human primary T lymphocytes (annexin V / propidium iodide flow cytometry); assay type: cell-based; settings: 48 or 72 h
Protocol: Cell lines were obtained from the American Type Culture Collection (ATCC), Rockville, MD. U87 MG cells were cultured in minimum essential medium (MEM) supplemented with 10% fetal bovine serum, 1% penicillin/streptomycin, 1% glutamine, 1% sodium pyruvate, and 1% nonessential amino acids. OVCAR-3 cells were cultured in Dulbecco’s modified eagle medium (DMEM) purchased from Sigma Aldrich (cat. no. D6546) supplemented with 20% fetal bovine serum,1% penicillin/streptomycin, 1% glutamine, 1% sodium pyruvate, 1% Hepes, and 0.01 μg/mL insulin (Sigma Aldrich, cat. no. 19278). […] Healthy donors’ peripheral blood mononuclear cells (PBMCs) were isolated by Lymphoprep (Nycomed) gradient centrifugation. T lymphocytes were negatively selected from PBMCs using a magnetic Dynabeads Untouched Human T Cells Kit (Thermo Fisher Scientific) following the manufacturer’s instructions.
Apoptotic cell death was evaluated using the APC Annexin-V Apoptosis Detection Kit with PI (Thermo Fisher Scientific). Briefly, 1.5 × 10^6/mL cells were cultured in 48-well plates, untreated or treated with different concentrations of 15 for 48 or 72 h. Cells were then stained using annexin-V/APC and propidium iodide according to the manufacturer’s instructions. Cell populations were acquired using a FACS Canto II flow cytometer (BD Biosciences). […]

COc1cc(C(=O)c2cn(-c3ncccn3)cc2-c2ccco2)cc(OC)c1OC [Compound 15, (4-(Furan-2-yl)-1-(pyrimidyl-2-yl)-1H-pyrrol-3-yl)(3,4,5-trimethoxyphenyl)methanone]
Inhib. colch. binding 1-5-5 (% ± SD) (tubulin [1]): 88 ± 0.4% | IC50 (tubulin [2]): 520 ± 70 nM | concentration from which cleaved PARP increases [3]: ≥ 5 nM | concentration from which PARP cleavage occurs [4]: ≥ 20 nM | Cli ± SD ([5]; MLM 0.5 mg/mL, 1 μM, n = 2): 461 μL/min/mg protein and 461.1 ± 45.5 μL/min/mg protein | half-life at 1 h, 1 µM ([5]; male, CD-1, mouse, liver microsomes, pH 7.4, MLM 0.5 mg/mL, 1 μM, n = 2, read-out: t1/2 ± SD): 3 ± 0.3 min | microsomal CLint at 1 μM ([5]; male, CD-1, pH 7.4, mouse liver microsomes, read-out: intrinsic clearance classification): > 66 µL/min/mg | IC50 (OVCAR-3 OC cells): 2.85 nM | Inhibition of MCF-7 cell growth (in words) [6]: strong inhibition | IC50 ([6]; Homo sapiens, MCF7, inhibition of cell growth, cells grown for 96 h, read-out: MCF-7 IC50 ± SD): 4 ± 1 nM | cell viability / toxicity ([7]; 0.1 μM): did not change cell viability; also recorded: not toxic | cell viability / toxicity ([7]; 1.0 or 2.5 μM): some cytotoxicity was observed
